Here are results for three molecules from patent US6403626B1, “Benzimidazole derivatives” (Synaptic Pharmaceutical Corporation, priority 1994, dated 2002).

The structures appear in SMILES notation.

Assay [1] addresses T1, α1C Human Adrenergic Receptor (Homo sapiens, UniProt P35348).
T1 construct: expressed in transfected cells; host or cells: LM(tk-) cells
T1 sequence (P35348 1-466): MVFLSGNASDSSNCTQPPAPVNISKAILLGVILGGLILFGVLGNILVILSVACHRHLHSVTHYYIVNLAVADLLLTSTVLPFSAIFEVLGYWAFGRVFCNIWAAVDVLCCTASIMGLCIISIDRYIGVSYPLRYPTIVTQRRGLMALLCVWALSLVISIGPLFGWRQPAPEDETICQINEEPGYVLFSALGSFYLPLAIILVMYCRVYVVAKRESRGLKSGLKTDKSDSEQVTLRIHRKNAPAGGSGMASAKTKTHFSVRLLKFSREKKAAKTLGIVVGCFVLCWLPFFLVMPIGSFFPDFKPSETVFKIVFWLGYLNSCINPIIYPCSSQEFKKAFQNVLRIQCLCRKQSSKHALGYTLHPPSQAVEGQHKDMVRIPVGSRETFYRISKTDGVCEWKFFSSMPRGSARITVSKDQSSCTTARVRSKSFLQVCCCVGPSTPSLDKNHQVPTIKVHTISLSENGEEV
In words: Equilibrium competition binding, [3H] prazosin, membranes of transfected LM(tk-) cells. The conditions noted are these: cloned human receptor; [3H] prazosin; read-out: pKi Alpha-1 C (converted).

The target in assay [2] is T2, α2B Human Adrenergic Receptor (Homo sapiens, UniProt P18089).
T2 construct: expressed in transfected cells; host or cells: Y-1 cells
T2 sequence (P18089 1-450): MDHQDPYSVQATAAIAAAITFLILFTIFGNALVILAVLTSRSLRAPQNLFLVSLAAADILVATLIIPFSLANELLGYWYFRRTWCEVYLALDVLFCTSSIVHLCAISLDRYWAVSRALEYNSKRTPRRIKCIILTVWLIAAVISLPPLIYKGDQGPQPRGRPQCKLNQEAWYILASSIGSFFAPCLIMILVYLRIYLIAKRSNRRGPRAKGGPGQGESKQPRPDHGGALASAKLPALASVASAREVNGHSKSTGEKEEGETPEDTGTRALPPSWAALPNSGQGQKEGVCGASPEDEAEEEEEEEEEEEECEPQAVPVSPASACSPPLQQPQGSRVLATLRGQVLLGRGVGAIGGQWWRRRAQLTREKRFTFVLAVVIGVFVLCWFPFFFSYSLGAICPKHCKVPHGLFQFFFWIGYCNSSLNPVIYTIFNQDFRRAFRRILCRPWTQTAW
In words: Equilibrium competition binding, [3H] rauwolscine, membranes of transfected Y-1 cells.

The target of assay [3] is T3, α2C Human Adrenergic Receptor (Homo sapiens, UniProt P18825).
T3 sequence (P18825 1-462): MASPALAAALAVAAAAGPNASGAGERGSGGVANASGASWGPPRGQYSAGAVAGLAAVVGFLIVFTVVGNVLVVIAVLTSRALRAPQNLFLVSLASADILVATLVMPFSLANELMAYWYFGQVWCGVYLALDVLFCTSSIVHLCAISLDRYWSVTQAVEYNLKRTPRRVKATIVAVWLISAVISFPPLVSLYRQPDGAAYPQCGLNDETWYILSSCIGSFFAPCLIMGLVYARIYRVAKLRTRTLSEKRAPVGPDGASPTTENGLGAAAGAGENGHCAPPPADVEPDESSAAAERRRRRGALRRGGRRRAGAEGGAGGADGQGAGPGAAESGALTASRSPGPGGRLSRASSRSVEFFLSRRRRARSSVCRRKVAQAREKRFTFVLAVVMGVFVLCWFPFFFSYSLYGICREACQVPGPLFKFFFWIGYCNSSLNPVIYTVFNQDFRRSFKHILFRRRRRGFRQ
In words: Equilibrium competition binding, [3H] rauwolscine, membranes of transfected LM(tk-) cells.

In assay [4] the target is T4, α1B Human Adrenergic Receptor (Homo sapiens, UniProt P35368).
T4 construct: The entire coding region of α1B(1563 bp); expressed in transfected cells; host or cells: LM(tk-) cells
T4 sequence (P35368 1-520): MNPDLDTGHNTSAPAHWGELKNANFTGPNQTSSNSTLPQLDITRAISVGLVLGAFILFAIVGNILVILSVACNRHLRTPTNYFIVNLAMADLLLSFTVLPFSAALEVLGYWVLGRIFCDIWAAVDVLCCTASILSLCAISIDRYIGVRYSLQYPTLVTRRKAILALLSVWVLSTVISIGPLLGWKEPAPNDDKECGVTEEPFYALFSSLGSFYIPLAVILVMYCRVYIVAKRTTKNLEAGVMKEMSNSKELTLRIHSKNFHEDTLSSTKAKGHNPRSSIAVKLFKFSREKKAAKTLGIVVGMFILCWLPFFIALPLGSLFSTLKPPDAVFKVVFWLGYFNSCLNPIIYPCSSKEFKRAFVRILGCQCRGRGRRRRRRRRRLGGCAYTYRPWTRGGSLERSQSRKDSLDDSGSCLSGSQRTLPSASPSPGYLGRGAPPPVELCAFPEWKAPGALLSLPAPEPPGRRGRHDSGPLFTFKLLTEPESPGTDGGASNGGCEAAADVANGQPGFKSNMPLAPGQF
In words: Equilibrium competition binding, [3H] prazosin, membranes of transfected LM(tk-) cells. As to conditions: cloned human receptor; [3H] prazosin; read-out: pKi Alpha-1 B (converted).

As to `Clc1cc(NC2=NCCN2)c(Br)c2[nH]cnc12` [Example 60, 4-Bromo-7-chloro-5-(2-imidazolin-2-ylamino)Benzimidazole], the Ki in assay [1] was 0.479 µM; in assay [2] it was 0.000468 µM; in assay [3] it was 0.0162 µM; in assay [4], 0.316 µM.

Consider `CC(C)c1nc2ccc(NC3=NCCN3)c(Br)c2[nH]1` [Example 44, 2-Isopropyl-4-bromo-5-(2-imidazolin-2-ylamino)Benzimidazole], for which the Ki was 3.09 µM in assay [1], 0.0468 µM in assay [2], 0.214 µM in assay [3] and 5.89 µM in assay [4].

Take `Brc1cc2nc[nH]c2c(Br)c1NC1=NCCN1` [Example 50, 4,6-Dibromo-5-(2-imidazolin-2-ylamino)Benzimidazole]: the Ki in assay [1] was 0.776 µM; in assay [2], 0.00234 µM; in assay [3], 0.0245 µM; in assay [4] it was 0.166 µM.
